The source made the active and inactive calls.
Assays:
[1] = viability of uninfected HEp-2 cells – cell-based, HTS, cytotoxicity control for RSV inhibitor project, dose response (AID 2410); format: functional; details: human respiratory syncytial virus
INS1 = test: INS-1E survival protection against cytokine death – cell-based, luminescence, retest, dose response (AID 449756); format: functional; details: Rattus norvegicus, INS1;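 further: cell death triggered by IL-1 beta plus TNF-alpha plus IFN-gamma mixture; protective hits raise ATP signal compared with cytokine alone wells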
Large T antigen = Large T antigen (Simian virus 40, UniProt P03070); format: functional, Betapolyomavirus macacae;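 further: Confirmatory-stage PubChem screen for compounds that inhibit SV40 T antigen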
Large T antigen, sequence (P03070 whole entry): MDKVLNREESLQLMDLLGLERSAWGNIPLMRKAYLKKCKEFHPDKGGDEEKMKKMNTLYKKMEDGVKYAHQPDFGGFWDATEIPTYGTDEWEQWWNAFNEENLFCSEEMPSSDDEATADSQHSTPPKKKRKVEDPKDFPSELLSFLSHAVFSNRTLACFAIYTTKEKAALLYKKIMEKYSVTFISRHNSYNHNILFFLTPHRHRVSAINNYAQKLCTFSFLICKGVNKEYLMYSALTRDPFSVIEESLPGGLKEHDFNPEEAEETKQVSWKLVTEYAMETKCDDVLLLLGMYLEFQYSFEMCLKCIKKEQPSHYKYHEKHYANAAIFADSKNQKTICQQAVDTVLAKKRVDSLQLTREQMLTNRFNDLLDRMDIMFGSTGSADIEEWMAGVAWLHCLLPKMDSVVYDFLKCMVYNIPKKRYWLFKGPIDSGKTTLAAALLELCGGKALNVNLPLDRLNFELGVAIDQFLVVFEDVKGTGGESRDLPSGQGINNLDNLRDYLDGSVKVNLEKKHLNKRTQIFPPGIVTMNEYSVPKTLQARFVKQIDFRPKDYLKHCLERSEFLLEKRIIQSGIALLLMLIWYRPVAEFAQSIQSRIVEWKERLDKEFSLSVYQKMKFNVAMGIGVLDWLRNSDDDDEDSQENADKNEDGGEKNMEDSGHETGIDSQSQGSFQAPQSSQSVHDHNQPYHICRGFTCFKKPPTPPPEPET

Cytochrome P450 2D6 = Cytochrome P450 2D6 (Homo sapiens, UniProt P10635);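 further: CYP2D6 member of a cytochrome P450 panel assay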
Cytochrome P450 2D6, sequence (P10635 whole entry): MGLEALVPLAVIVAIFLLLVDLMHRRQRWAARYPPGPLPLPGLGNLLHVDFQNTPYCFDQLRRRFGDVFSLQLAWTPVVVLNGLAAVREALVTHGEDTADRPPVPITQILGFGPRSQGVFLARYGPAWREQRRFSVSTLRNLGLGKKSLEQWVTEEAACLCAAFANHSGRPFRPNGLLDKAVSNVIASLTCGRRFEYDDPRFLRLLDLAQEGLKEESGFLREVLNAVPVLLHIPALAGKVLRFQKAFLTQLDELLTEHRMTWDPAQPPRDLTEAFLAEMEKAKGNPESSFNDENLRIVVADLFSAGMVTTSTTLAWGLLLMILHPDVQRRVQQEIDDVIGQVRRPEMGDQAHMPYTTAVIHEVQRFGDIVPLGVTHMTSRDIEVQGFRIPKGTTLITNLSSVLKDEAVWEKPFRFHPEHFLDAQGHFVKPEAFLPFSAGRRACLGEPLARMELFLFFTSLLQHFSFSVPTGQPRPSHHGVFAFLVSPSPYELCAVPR

Cytochrome P450 2C9 = Cytochrome P450 2C9 (Homo sapiens, UniProt P11712)
Cytochrome P450 2C9, sequence (P11712 whole entry): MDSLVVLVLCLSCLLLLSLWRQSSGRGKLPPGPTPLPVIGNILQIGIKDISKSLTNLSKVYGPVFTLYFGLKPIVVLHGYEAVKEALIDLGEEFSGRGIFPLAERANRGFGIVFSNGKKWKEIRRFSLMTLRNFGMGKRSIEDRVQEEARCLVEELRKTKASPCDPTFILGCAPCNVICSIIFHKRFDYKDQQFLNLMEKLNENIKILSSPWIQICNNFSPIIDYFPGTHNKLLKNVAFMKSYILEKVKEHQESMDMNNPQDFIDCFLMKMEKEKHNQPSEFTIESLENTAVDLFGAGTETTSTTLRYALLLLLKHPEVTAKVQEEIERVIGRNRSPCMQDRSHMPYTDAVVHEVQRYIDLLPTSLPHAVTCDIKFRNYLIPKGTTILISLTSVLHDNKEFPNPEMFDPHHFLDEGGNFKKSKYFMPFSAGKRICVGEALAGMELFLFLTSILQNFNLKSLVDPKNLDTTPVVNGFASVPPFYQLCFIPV

[2] = viability of PTEN-deleted HCT116 cells – cell-based, HCT116 PTEN knockout, dose response (AID 1047); format: functional;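 further: HCT116 colon tumor cells with PTEN knocked out; cells exposed to compound for 60 hours before readout; potency for loss of cell viability measured by luminescence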
Streptokinase A = molecular target: T1, Streptokinase A (Streptococcus pyogenes serotype M1, UniProt P10520); test: viability-normalized secreted streptokinase activity reduction – plasminogen activation absorbance, OD405, dose response (AID 1914); format: functional, Streptococcus pyogenes M1 GAS;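 further: secreted streptokinase activity via plasminogen activation per viability signal from cell pellet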
T1 sequence (P10520 whole entry): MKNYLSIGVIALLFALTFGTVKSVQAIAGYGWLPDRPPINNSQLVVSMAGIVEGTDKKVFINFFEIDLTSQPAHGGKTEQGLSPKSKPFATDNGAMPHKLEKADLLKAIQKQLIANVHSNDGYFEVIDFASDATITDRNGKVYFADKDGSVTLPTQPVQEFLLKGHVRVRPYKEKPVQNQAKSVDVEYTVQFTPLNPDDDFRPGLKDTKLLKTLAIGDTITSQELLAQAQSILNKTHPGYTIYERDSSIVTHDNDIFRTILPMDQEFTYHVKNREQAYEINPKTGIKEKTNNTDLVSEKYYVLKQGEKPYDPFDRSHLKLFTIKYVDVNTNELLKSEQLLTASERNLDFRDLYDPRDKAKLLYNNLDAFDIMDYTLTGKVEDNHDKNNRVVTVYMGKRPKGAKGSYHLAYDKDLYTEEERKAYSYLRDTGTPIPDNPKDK

Streptococcus = test: GAS UMAA2166 growth inhibition – luminescence, BacTiterGlo, counter-screen for streptokinase expression inhibitor project, dose response (AID 1915); format: functional, organism-based;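 further: potency for reduction of bacterial viability or growth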
[3] = system: Streptococcus sp. 'group A'; test: Streptococcus pyogenes SK(-)GAS viability under kanamycin – luminescence, BacTiterGlo, confirmation, counter-screen for streptokinase expression inhibitor project, dose response (AID 1900); format: functional, organism-based
[4] = viability of HCT116 lacking mutant beta-catenin – cell-based, human colon tumor, dose response (AID 1045); format: functional;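 further: HCT116 colon tumor cells with beta catenin knocked out; cells exposed to compound for 60 hours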
[5] = Luminescence Cell-Based Dose Retest to Confirm Inhibitors of Cancer Stem Cells. [Related pubchem assays (depositor defined):AID2717, AID2721]; format: functional; details: Homo sapiens
Protein RecA = molecular target: T2, Protein RecA (Mycobacterium tuberculosis, UniProt P9WHJ3); test: Fluorescence Cell-Free Homogeneous Dose Retest to Identify Inhibitors of RecA-Intein Splicing Activity. [Related pubchem assays (depositor defined):AID2097, AID2223, AID489010, AID492950]; format: functional
T2 sequence (P9WHJ3 whole entry): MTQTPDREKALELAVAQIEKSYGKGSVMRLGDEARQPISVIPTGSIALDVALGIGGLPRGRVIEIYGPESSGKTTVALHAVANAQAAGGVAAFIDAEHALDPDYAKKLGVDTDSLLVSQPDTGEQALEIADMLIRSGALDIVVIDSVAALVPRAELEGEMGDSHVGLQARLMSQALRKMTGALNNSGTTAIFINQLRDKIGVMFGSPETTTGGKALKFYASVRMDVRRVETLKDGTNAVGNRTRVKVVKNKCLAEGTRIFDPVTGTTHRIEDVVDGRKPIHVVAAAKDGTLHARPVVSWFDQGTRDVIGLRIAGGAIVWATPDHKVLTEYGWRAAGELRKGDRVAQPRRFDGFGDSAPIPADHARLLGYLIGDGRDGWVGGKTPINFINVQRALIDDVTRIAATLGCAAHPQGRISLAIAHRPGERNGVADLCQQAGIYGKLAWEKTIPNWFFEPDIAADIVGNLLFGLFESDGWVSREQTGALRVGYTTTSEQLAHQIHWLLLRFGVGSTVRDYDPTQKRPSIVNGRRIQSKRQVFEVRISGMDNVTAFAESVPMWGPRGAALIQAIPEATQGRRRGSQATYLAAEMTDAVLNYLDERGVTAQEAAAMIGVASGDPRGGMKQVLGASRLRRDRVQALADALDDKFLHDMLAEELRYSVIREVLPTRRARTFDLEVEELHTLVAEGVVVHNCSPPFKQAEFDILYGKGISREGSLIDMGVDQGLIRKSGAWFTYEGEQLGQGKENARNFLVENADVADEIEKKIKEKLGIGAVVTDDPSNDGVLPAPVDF

[6] = molecular target: T3, Replicative DNA helicase DnaB (Mycobacterium tuberculosis, UniProt P9WMR3); test: DnaB intein splicing inhibitors, dose response, biochemical, cell-free fluorescence (AID 449749); format: functional
T3 sequence (P9WMR3 whole entry): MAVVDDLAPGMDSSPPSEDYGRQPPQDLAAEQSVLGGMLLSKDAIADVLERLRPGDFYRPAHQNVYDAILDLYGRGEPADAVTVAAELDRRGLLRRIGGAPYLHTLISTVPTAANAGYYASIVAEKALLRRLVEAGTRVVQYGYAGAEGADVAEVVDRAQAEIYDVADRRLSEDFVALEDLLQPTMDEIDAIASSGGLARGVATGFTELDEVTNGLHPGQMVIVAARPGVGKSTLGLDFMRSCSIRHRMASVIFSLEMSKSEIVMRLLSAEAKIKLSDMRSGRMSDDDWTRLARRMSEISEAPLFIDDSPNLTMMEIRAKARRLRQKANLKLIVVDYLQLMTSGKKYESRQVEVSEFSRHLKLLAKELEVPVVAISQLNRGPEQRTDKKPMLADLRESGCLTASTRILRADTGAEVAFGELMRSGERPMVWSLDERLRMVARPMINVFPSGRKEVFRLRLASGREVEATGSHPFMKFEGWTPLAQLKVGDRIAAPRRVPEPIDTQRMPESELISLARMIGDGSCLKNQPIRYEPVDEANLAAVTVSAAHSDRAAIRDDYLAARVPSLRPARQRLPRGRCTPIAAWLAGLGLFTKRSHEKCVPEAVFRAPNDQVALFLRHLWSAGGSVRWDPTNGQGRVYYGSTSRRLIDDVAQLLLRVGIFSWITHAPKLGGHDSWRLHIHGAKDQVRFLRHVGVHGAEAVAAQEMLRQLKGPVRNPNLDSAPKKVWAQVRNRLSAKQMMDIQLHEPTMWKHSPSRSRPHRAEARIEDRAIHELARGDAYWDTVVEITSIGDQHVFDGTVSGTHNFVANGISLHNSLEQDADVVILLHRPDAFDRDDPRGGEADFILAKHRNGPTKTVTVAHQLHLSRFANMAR

Cytochrome P450 3A4 = Cytochrome P450 3A4 (Homo sapiens, UniProt P08684);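 further: CYP3A4 tested as one member of a cytochrome P450 panel screen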
Cytochrome P450 3A4, sequence (P08684 whole entry): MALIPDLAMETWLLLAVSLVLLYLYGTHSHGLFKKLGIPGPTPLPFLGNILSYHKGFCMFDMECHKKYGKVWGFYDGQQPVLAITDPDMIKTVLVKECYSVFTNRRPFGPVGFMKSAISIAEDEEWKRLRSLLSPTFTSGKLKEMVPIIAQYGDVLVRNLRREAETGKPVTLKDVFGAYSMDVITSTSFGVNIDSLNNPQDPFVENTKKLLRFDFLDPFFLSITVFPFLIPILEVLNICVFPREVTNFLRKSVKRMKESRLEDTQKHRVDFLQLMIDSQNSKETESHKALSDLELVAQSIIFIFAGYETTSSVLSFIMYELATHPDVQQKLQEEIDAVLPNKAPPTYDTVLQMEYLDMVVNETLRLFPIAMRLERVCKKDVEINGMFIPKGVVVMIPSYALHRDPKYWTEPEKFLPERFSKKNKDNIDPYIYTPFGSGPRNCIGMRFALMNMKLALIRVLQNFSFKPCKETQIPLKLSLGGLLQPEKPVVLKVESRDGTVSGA

[7] = molecular target: T4, Rac GTPase-activating protein 1 (Homo sapiens, UniProt Q9H0H5); test: blockers of MgcRacGAP-driven Rac1 GTP hydrolysis – biochemical, ADP Hunter fluorescence, primary and confirmatory, confirmation (AID 624330); format: functional
T4 sequence (Q9H0H5 whole entry): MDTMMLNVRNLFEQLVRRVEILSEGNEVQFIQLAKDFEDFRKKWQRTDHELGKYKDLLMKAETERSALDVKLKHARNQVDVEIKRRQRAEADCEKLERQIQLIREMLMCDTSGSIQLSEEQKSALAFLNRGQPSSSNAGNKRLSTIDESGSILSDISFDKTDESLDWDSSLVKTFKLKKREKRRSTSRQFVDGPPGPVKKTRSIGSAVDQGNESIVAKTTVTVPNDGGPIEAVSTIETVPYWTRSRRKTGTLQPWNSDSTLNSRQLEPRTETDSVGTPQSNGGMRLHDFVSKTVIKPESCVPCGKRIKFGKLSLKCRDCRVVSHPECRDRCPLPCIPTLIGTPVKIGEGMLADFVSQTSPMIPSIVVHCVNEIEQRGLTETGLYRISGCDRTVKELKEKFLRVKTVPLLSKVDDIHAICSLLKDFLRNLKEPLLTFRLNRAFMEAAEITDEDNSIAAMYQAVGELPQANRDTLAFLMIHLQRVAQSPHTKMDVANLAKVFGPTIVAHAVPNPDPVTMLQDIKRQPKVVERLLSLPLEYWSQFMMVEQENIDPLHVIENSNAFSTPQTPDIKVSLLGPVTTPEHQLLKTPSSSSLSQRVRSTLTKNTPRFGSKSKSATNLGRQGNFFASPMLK

Cytochrome P450 1A2 = molecular target: T5, Cytochrome P450 1A2 (Homo sapiens, UniProt P05177);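 further: PubChem cytochrome P450 panel assay, CYP1A2 panel member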
T5 sequence (P05177 whole entry): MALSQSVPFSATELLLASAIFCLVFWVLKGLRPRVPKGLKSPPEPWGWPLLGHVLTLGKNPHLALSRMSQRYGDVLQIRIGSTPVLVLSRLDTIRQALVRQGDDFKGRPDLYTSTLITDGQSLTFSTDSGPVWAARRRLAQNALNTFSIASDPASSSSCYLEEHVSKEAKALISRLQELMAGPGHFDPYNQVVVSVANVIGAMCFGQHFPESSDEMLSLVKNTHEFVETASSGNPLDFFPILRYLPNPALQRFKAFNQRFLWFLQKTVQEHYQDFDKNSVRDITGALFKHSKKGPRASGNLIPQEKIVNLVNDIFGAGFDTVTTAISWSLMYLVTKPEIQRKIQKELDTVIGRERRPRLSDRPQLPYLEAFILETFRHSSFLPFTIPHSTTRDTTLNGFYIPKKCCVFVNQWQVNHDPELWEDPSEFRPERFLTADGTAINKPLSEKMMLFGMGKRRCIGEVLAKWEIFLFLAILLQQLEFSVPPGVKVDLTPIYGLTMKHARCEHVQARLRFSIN

CCc1ccc(Nc2cnn(-c3nc4ccccc4s3)c(=O)c2Cl)cc1
CC50 [1]: 44.6 µM (active)

COc1ccc(-c2c([C@H]3[C@H]4C=CC[C@@H](C)[C@@H]4C(=O)N3Cc3ccccc3)ccc3ccccc23)cc1
AC50 (INS1): 9.01 µM (active)

O=C1c2cccc3c([N+](=O)[O-])ccc(c23)C(=O)N1CCc1ccccn1
CC50 [1]: 7.83 µM (active)

O=C(c1cccc(-c2ccc(O)cc2)c1)N1CCOCC1
IC50 (Large T antigen): 10.2 µM (active)

COc1ccc(NC(=O)CSc2nc3ccccc3cc2Cc2ccccc2)cc1
AC50 (Cytochrome P450 2D6): 0.2 µM (inconclusive) | AC50 (Cytochrome P450 2C9): 1.26 µM (inconclusive)

CCS(=O)(=O)Nc1ccc(-c2cc(-c3ccccc3)c3cc(C)ccc3n2)cc1
EC50 [2]: 27.6 µM (active) | EC50 (Streptokinase A): > 150 µM (not active) | EC50 (Streptococcus): 7.65 µM (active) | EC50 [3]: 7.31 µM (active) | EC50 [4]: 24.1 µM (active) | AC50 [5]: 3.42 µM (active)

O=C(Nc1ccccc1)Nc1ccc(O)c2ccccc12
EC50 (Protein RecA): 0.762 µM (active) | AC50 [5]: 2.56 µM (active) | AC50 [6]: 9.08 µM (active)

Clc1cccc(Nc2nnc(-c3ccccc3)c3ccccc23)c1
AC50 (Cytochrome P450 2D6): 2 µM (inconclusive) | AC50 (Cytochrome P450 3A4): 7.94 µM (inconclusive)

CCC(=O)O[C@@]1(C(=O)CCl)[C@@H](C)C[C@@H]2[C@H]3CCC4=CC(=O)C=C[C@@]4(C)[C@]3(F)[C@@H](O)C[C@@]21C
AC50 (Cytochrome P450 2D6): 10 µM (inconclusive) | AC50 (Cytochrome P450 2C9): 15.8 µM (inconclusive)

O=C(Nc1ccc(Cl)c(Cl)c1)Nc1nnc(CC2=CCCCC2)s1
AC50 (INS1): 3.51 µM (active)

COc1cc(/C=N\NC(=O)c2c(C)nc3cc(C)ccn23)ccc1O
IC50 (Large T antigen): 13.4 µM (active) | IC50 [7]: 33.3 µM (active)

C/C(=N/NC(=O)CSc1nc2ccccc2n1C)c1ccc(O)cc1
IC50 (Large T antigen): 30.9 µM (active) | IC50 [7]: 138 µM (active)

Cc1cc(O)nc(N/N=C/c2ccc(-c3ccc(F)cc3)o2)n1
AC50 [5]: 9.21 µM (active)

Cc1noc(C)c1C(=O)Nc1ccc(C#N)cc1
CC50 [1]: 23.4 µM (active)

Cc1nc(Cl)cc(N/N=C/c2ccc(O)cc2)n1
IC50 (Large T antigen): 8.13 µM (active)

C/C(CC(=O)Nc1ccc(N(C)C)cc1)=N\NC(=O)c1ccc([N+](=O)[O-])cc1Cl
IC50 (Large T antigen): 9.88 µM (active) | IC50 [7]: 66.7 µM (active)

CCOc1cc(/C=C2/NC(=O)N(CC(=O)OC)C2=O)ccc1O
IC50 (Large T antigen): 12.5 µM (active)

Cc1cc(C(C)(C)CC(C)(C)C)ccc1OCCOCC[N+](C)(C)Cc1ccccc1 [METHYLBENZETHONIUM]
AC50 (Cytochrome P450 2D6): 12.6 µM (inconclusive) | AC50 (Cytochrome P450 1A2): 12.6 µM (inconclusive)

Cc1ccc(-c2noc(CCC(=O)NCCCN3CCN(c4cccc(Cl)c4)CC3)n2)cc1
CC50 [1]: > 50 µM (active)

C[C@@H]1CC[C@]2(C(=O)O)CC[C@]3(C)C(=CCC4[C@]56CC[C@@](O)(OC5)C(C)(C)C6CC[C@]43C)C2[C@H]1C (stereo not given in full)
AC50 [5]: 5.61 µM (active)

Cc1c(C(=O)N(CCc2ccccc2)Cc2ccccc2)cccc1[N+](=O)[O-]
CC50 [1]: 25.5 µM (active)

O=C(CCc1nc(-c2ccccc2)no1)NCCc1ccccc1
AC50 (Cytochrome P450 2D6): 39.8 µM (inconclusive) | AC50 (Cytochrome P450 2C9): 15.8 µM (inconclusive)

O=C(CN(c1cccc(C(F)(F)F)c1)S(=O)(=O)c1ccc(Cl)c([N+](=O)[O-])c1)NCc1ccccc1Cl
CC50 [1]: > 50 µM (active) | AC50 [5]: 1.72 µM (active)

CCc1ccc(N(CC(=O)Nc2nc3ccc(C)cc3s2)S(=O)(=O)c2c(C)noc2C)cc1
AC50 [5]: 3.45 µM (active)

CCN(CC)S(=O)(=O)c1cccc(NC(=O)c2cc3ccccc3o2)c1
CC50 [1]: 10.9 µM (active)

CN1CCN(c2ncncc2-c2ccccc2C(F)(F)F)CC1
AC50 (Cytochrome P450 2D6): 20 µM (inconclusive) | AC50 (Cytochrome P450 1A2): 31.6 µM (inconclusive) | AC50 (Cytochrome P450 3A4): 3.98 µM (inconclusive)

CCC(C)(C)NC(=O)CSc1nc(Cc2ccccc2)nc2ccccc12
CC50 [1]: > 50 µM (active)

Source: ChEMBL document CHEMBL1201862, “PubChem BioAssay data set” (2004)
